Test results published in ChEMBL document CHEMBL1201862, “PubChem BioAssay data set” (2004).
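Five concentrations, 48 hours, 96-well plates. At the GI50, growth is halved.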 The source made the active and inactive calls. Rule as the data show it: active = GI50 up to about 1.1 µM and inactive = higher.

How the values were obtained:
Assay in all cases: NCI anticancer screen, dose series, 48 h
UACC-257 = tested on: UACC-257
COLO 205 = tested on: COLO 205
M14 = tested on: M14
SNB-19 = tested on: SNB-19
LXFL 529 = tested on: LXFL 529
OVCAR-3 = tested on: OVCAR-3
TK-10 = tested on: TK-10
HCT-15 = tested on: HCT-15
UACC-62 = tested on: UACC-62
786-0 = tested on: 786-0
LOX IMVI = tested on: LOX IMVI
RXF 631 = tested on: RXF 631
CCRF-CEM = tested on: CCRF-CEM
OVCAR-5 = tested on: OVCAR-5
OVCAR-8 = tested on: OVCAR-8
KM-20L2 = tested on: KM-20L2
DMS-273 = tested on: DMS-273
SK-MEL-5 = tested on: SK-MEL-5
SF-295 = tested on: SF-295
SK-MEL-28 = tested on: SK-MEL-28
HOP-18 = tested on: HOP-18
OVCAR-4 = tested on: OVCAR-4
HOP-62 = tested on: HOP-62
HCC 2998 = tested on: HCC 2998
A549 = tested on: A549
SW-620 = tested on: SW-620
K562 = tested on: K562
SNB-75 = tested on: SNB-75
XF498 = tested on: XF498
MOLT-4 = tested on: MOLT-4
SR = tested on: SR
CAKI-1 = tested on: CAKI-1
SN12C = tested on: SN12C
RXF 393 = tested on: RXF 393
NCI-H522 = tested on: NCI-H522
SF-539 = tested on: SF-539
HL-60 = tested on: HL-60
UO-31 = tested on: UO-31
RPMI-8226 = tested on: RPMI-8226
DLD-1 = tested on: DLD-1
SK-MEL-2 = tested on: SK-MEL-2
EKVX = tested on: EKVX
A498 = tested on: A498
HOP-92 = tested on: HOP-92
ACHN = tested on: ACHN
KM12 = tested on: KM12
U-251 = tested on: U-251
NCI-H23 = tested on: NCI-H23
M19-MEL = tested on: M19-MEL
IGROV-1 = tested on: IGROV-1
NCI-H226 = tested on: NCI-H226
SNB-78 = tested on: SNB-78
Malme-3M = tested on: Malme-3M
SF-268 = tested on: SF-268
HT-29 = tested on: HT-29

Cc1nc2ccccc2nc1NS(=O)(=O)c1ccc(N)cc1
GI50 (UACC-257): > 100 µM (inactive)
GI50 (COLO 205): > 100 µM (inactive)
GI50 (M14): > 100 µM (inactive)
GI50 (SNB-19): > 100 µM (inactive)
GI50 (LXFL 529): > 100 µM (inactive)
GI50 (OVCAR-3): > 100 µM (inactive)
GI50 (TK-10): > 100 µM (inactive)
GI50 (HCT-15): > 100 µM
GI50 (UACC-62): > 100 µM (inactive)
GI50 (786-0): > 100 µM (inactive)
GI50 (LOX IMVI): > 100 µM (inactive)
GI50 (RXF 631): > 100 µM (inactive)
GI50 (CCRF-CEM): > 100 µM (inactive)
GI50 (OVCAR-5): > 100 µM (inactive)
GI50 (OVCAR-8): > 100 µM (inactive)
GI50 (KM-20L2): > 100 µM (inactive)
GI50 (DMS-273): > 100 µM (inactive)
GI50 (SK-MEL-5): > 100 µM (inactive)
GI50 (SF-295): > 100 µM (inactive)
GI50 (SK-MEL-28): > 100 µM (inactive)
GI50 (HOP-18): > 100 µM (inactive)
GI50 (OVCAR-4): > 100 µM (inactive)
GI50 (HOP-62): > 100 µM (inactive)
GI50 (HCC 2998): > 100 µM (inactive)
GI50 (A549): > 100 µM (inactive)
GI50 (SW-620): > 100 µM (inactive)
GI50 (K562): > 100 µM (inactive)
GI50 (SNB-75): 50.9 µM (inactive)
GI50 (XF498): > 100 µM (inactive)
GI50 (MOLT-4): > 100 µM (inactive)
GI50 (SR): > 100 µM (inactive)
GI50 (CAKI-1): > 100 µM (inactive)
GI50 (SN12C): > 100 µM (inactive)
GI50 (RXF 393): > 100 µM (inactive)
GI50 (NCI-H522): > 100 µM (inactive)
GI50 (SF-539): > 100 µM (inactive)
GI50 (HL-60): > 100 µM (inactive)
GI50 (UO-31): > 100 µM (inactive)
GI50 (RPMI-8226): > 100 µM (inactive)
GI50 (DLD-1): > 100 µM (inactive)
GI50 (SK-MEL-2): > 100 µM (inactive)
GI50 (EKVX): > 100 µM (inactive)
GI50 (A498): > 100 µM (inactive)
GI50 (HOP-92): > 100 µM (inactive)
GI50 (ACHN): > 100 µM (inactive)
GI50 (KM12): > 100 µM (inactive)
GI50 (U-251): > 100 µM (inactive)
GI50 (NCI-H23): > 100 µM (inactive)
GI50 (M19-MEL): > 100 µM (inactive)
GI50 (IGROV-1): > 100 µM (inactive)
GI50 (NCI-H226): > 100 µM (inactive)
GI50 (SNB-78): > 100 µM (inactive)
GI50 (Malme-3M): > 100 µM (inactive)
GI50 (SF-268): > 100 µM (inactive)
GI50 (HT-29): > 100 µM (inactive)
